Measured values published in paper PMC4778445, “Measurement of free glucocorticoids: quantifying corticosteroid-binding globulin binding affinity and its variation within and among mammalian species” (Conservation Physiology, 2015).

How the values were obtained:
Assay in all cases: radioligand saturation binding, dextran-coated charcoal separation
[1] = target: T1, corticosteroid-binding globulin (CBG), deer mouse (Peromyscus maniculatus, UniProt A0A6J0EC89); settings: labelled compound ([1,2,6,7-3H]corticosterone); 37 °C, ≥4 h, PBS with gelatin; separation at 0 °C; plasma 1/200; error SEM
T1 construct: gene Serpina6; native protein in charcoal-stripped plasma, not purified
T1 sequence (A0A6J0EC89 23-402): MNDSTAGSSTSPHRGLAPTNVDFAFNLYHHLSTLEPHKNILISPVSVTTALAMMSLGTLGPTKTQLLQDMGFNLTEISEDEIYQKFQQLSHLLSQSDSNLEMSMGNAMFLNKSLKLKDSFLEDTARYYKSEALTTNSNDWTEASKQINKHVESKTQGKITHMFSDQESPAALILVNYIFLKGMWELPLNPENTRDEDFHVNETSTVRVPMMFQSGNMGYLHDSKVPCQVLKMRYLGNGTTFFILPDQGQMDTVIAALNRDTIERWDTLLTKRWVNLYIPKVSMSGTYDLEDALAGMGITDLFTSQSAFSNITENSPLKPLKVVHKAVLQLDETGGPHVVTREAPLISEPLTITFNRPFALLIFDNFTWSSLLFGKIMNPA
From the text: radioligand saturation binding, dextran-coated charcoal separation on corticosteroid-binding globulin (CBG), deer mouse

[2] = target: T2, corticosteroid-binding globulin (CBG), meadow vole (Microtus pennsylvanicus, UniProt Z9TXB6IQC5); settings: labelled compound ([1,2,6,7-3H]corticosterone); 37 °C, ≥4 h, PBS with gelatin; separation at 0 °C; plasma 1/50; mean of two runs; error SEM
T2 construct: native protein in charcoal-stripped plasma, not purified
T2 sequence (Z9TXB6IQC5 21-398): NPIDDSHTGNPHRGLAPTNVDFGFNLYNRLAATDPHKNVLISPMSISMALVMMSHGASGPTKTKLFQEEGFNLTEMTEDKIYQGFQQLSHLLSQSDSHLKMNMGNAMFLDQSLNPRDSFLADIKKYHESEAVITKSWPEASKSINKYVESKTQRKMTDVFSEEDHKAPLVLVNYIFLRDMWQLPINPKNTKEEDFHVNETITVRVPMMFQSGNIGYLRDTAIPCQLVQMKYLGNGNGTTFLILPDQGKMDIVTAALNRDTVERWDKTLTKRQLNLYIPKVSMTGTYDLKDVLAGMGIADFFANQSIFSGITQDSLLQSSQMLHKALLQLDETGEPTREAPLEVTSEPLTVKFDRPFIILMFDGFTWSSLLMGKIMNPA
From the text: radioligand saturation binding, dextran-coated charcoal separation on corticosteroid-binding globulin (CBG), meadow vole

[3] = target: T3, corticosteroid-binding globulin (CBG), alpaca (Vicugna pacos, UniProt A0A6I9IEG0); settings: labelled compound ([1,2,6,7-3H]cortisol); 37 °C, ≥4 h, PBS with gelatin; separation at 0 °C; serum 1/50; non-specific binding subtracted; error SEM
T3 construct: gene SERPINA6; native protein in charcoal-stripped serum (Toronto Zoo), not purified
T3 sequence (A0A6I9IEG0 18-405): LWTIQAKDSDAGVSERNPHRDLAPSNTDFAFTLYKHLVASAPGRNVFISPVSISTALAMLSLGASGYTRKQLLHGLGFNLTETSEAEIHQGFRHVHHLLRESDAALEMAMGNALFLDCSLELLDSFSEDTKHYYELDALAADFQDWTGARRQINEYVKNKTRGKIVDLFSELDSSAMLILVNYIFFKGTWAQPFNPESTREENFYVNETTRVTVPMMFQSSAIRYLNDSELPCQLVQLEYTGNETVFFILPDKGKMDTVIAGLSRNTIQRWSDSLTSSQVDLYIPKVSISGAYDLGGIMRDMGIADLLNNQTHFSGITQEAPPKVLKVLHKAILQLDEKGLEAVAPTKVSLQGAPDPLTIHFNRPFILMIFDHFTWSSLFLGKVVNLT
From the text: radioligand saturation binding, dextran-coated charcoal separation on corticosteroid-binding globulin (CBG), alpaca

[4] = target: T4, corticosteroid-binding globulin (CBG), Siberian tiger (Panthera tigris, UniProt A0A8C9K299); settings: labelled compound ([1,2,6,7-3H]cortisol); 37 °C, ≥4 h, PBS with gelatin; separation at 0 °C; serum 1/50; non-specific binding subtracted; error SEM
T4 construct: native protein in charcoal-stripped serum (Toronto Zoo), not purified
T4 sequence (A0A8C9K299 23-403): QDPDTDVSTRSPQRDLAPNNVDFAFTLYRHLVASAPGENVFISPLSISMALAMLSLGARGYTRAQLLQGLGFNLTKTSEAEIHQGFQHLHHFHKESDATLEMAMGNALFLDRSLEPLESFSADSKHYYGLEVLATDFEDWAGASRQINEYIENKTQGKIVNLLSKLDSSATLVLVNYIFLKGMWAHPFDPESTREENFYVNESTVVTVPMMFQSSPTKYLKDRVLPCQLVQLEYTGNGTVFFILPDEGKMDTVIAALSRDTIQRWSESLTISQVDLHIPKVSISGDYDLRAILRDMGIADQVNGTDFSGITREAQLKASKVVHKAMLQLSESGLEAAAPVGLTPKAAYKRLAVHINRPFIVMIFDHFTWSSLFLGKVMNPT
From the text: radioligand saturation binding, dextran-coated charcoal separation on corticosteroid-binding globulin (CBG), Siberian tiger

[5] = target: T5, corticosteroid-binding globulin (CBG), Bactrian camel (Camelus bactrianus, UniProt A0A9W3H1V5); settings: labelled compound ([1,2,6,7-3H]cortisol); 37 °C, ≥4 h, PBS with gelatin; separation at 0 °C; serum 1/50; non-specific binding subtracted; error SEM
T5 construct: gene LOC105079894; native protein in charcoal-stripped serum (Toronto Zoo), not purified
T5 sequence (A0A9W3H1V5 24-405 limits assumed): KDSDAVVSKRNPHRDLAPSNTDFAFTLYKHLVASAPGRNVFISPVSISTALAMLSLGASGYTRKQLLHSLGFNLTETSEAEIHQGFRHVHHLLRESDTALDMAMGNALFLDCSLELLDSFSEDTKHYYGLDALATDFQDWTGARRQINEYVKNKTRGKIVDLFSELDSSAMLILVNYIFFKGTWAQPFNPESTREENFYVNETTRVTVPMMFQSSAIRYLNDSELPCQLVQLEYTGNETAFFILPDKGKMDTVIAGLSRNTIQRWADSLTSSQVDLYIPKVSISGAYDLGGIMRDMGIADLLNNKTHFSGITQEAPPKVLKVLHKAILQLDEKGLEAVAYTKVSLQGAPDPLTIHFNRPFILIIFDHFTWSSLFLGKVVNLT
From the text: radioligand saturation binding, dextran-coated charcoal separation on corticosteroid-binding globulin (CBG), Bactrian camel

[6] = target: T6, corticosteroid-binding globulin (CBG), Arctic ground squirrel (Urocitellus parryii, UniProt A0A8D2GQE2); settings: labelled compound ([1,2,6,7-3H]cortisol); 37 °C, ≥4 h, PBS with gelatin; separation at 0 °C; plasma 1/50; mean of four runs; error SEM
T6 construct: gene SERPINA6; native protein in charcoal-stripped plasma, not purified
T6 sequence (A0A8D2GQE2 23-403): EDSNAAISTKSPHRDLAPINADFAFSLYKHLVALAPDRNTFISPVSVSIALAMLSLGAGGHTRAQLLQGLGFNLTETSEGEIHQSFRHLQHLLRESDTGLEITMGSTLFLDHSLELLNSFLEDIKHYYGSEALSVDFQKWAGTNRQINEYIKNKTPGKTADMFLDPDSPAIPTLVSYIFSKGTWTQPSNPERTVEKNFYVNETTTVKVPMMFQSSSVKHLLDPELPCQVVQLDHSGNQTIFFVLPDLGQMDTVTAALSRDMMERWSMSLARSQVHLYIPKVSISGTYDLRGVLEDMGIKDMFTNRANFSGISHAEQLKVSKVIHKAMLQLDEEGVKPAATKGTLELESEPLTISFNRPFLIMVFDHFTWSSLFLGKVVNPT
From the text: radioligand saturation binding, dextran-coated charcoal separation on corticosteroid-binding globulin (CBG), Arctic ground squirrel

[7] = target: T7, corticosteroid-binding globulin (CBG), Arctic wolf (Canis lupus, UniProt A0A8I3MUM2); settings: labelled compound ([1,2,6,7-3H]cortisol); 37 °C, ≥4 h, PBS with gelatin; separation at 0 °C; serum 1/50; non-specific binding subtracted; error SEM
T7 construct: gene SERPINA6; native protein in charcoal-stripped serum (Toronto Zoo), not purified
T7 sequence (A0A8I3MUM2 23-404): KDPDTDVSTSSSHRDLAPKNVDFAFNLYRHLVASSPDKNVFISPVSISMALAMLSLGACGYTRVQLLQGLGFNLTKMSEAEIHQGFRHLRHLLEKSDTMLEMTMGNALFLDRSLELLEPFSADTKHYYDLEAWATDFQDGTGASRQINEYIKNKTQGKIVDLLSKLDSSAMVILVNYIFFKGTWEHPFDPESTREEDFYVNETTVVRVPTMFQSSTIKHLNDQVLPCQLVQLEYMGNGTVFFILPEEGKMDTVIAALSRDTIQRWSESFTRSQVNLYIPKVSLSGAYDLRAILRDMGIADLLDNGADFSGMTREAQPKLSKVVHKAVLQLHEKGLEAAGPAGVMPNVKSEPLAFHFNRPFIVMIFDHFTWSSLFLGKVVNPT
From the text: radioligand saturation binding, dextran-coated charcoal separation on corticosteroid-binding globulin (CBG), Arctic wolf

[8] = target: T8, corticosteroid-binding globulin (CBG), Soay sheep (Ovis aries, UniProt P49920); settings: labelled compound ([1,2,6,7-3H]cortisol); 37 °C, ≥4 h, PBS with gelatin; separation at 0 °C; plasma 1/50; error SEM
T8 construct: gene SERPINA6; native protein in charcoal-stripped plasma, not purified
T8 sequence (P49920 23-430): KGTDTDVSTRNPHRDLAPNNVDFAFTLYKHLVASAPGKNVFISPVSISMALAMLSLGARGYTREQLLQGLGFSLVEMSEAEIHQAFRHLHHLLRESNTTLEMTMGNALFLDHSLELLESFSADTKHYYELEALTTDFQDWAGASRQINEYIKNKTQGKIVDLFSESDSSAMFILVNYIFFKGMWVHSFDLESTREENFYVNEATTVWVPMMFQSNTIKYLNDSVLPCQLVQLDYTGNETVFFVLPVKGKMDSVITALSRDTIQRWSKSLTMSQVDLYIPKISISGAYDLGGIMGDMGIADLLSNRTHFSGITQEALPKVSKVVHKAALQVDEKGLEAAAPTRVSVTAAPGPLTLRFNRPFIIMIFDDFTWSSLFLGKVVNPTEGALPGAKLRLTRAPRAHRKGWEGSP
From the text: radioligand saturation binding, dextran-coated charcoal separation on corticosteroid-binding globulin (CBG), Soay sheep

[9] = target: T9, corticosteroid-binding globulin (CBG), cheetah (Acinonyx jubatus, UniProt A0A6I9ZWD2); settings: labelled compound ([1,2,6,7-3H]cortisol); 37 °C, ≥4 h, PBS with gelatin; separation at 0 °C; serum 1/50; error SEM
T9 construct: gene LOC106977455; native protein in charcoal-stripped serum (Toronto Zoo), not purified
T9 sequence (A0A6I9ZWD2 23-404): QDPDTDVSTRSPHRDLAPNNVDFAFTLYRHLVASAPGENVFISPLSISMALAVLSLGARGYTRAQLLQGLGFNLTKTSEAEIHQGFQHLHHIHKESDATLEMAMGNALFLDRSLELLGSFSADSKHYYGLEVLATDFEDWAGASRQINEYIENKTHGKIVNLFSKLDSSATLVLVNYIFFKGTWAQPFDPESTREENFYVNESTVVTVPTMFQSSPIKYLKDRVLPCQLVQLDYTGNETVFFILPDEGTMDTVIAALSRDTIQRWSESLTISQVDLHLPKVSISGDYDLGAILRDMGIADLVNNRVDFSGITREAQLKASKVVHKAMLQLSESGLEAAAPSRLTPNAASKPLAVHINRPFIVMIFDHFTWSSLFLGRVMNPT
From the text: radioligand saturation binding, dextran-coated charcoal separation on corticosteroid-binding globulin (CBG), cheetah

| SMILES | Kd [1] [nM] | Kd [2] [nM] | Kd [3] [nM] | Kd [4] [nM] | Kd [5] [nM] | Kd [6] [nM] | Kd [7] [nM] | Kd [8] [nM] | Kd [9] [nM] |
| --- | --- | --- | --- | --- | --- | --- | --- | --- | --- |
| C[C@]12C[C@H](O)[C@H]3[C@@H](CCC4=CC(=O)CC[C@@]43C)[C@@H]1CC[C@@H]2C(=O)CO [B, corticosterone] | 4.9 ± 0.61 | 5.4 ± 1.2 | – | – | – | – | – | – | – |
| C[C@]12CCC(=O)C=C1CC[C@@H]1[C@@H]2[C@@H](O)C[C@@]2(C)[C@H]1CC[C@]2(O)C(=O)CO [F, cortisol] | – | – | 0.6 ± 0.15 | 0.7 ± 0.19 | 1 ± 0.16 | 4 ± 0.4 | 0.8 ± 0.11 | 1.7 ± 0.55 | 8 ± 2.4 |
